Data from patent US8058009B2, “Target protein and target gene in drug designing and screening method” (Reverse Proteomics Research Institute Co., Ltd., priority 2004, dated 2011).
Values belong to the molecule of their own block, whether it stands above or below them.

How the values were obtained:
FLJ10889-derived protein = target: T1, FLJ10889-derived protein (Homo sapiens, UniProt Q7L7V1, A496G/L459S/P686L/V123M); test: Biacore S51 surface plasmon resonance binding to FLJ10889-derived protein
T1 construct: made in house; host or cells: wheat germ cell-free synthesis system (PROTEIOS, Toyobo)
T1 sequence (Q7L7V1 1-743 V123M/L459S/A496G/P686L): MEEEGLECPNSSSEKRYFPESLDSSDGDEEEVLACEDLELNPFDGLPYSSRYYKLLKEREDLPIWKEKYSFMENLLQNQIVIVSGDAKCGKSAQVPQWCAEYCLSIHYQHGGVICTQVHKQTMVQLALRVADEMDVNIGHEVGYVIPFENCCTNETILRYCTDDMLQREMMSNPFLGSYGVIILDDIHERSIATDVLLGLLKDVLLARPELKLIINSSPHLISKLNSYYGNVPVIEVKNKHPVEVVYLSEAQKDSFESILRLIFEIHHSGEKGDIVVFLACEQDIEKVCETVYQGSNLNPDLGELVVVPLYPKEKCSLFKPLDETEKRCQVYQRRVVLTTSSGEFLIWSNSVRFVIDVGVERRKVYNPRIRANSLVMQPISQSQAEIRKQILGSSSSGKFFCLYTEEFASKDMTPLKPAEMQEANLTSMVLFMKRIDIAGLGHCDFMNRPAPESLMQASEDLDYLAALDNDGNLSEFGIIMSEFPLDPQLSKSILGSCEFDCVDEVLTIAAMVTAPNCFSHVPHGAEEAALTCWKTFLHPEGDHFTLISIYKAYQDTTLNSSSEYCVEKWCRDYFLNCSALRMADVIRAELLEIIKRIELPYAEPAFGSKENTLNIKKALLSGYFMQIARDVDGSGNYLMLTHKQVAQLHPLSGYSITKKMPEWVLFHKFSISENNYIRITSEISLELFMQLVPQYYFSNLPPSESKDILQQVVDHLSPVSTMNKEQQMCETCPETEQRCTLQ
Protocol: (§1) A desired gene of a human full-length cDNA clone was BP-reacted with the PCR cloning vector Gateway pDONR201 using the Invitrogen Gateway system per the kit protocol to yield an entry vector. […]
(§2) The surface of the CM5 sensor chip for S51 commercially available from Biacore Company was subjected to an NTA treatment with 1 M EDC, 1.33 M NHS and 16 mg/ml AB-NTA (pH 9.2) to prepare an NTA sensor chip for S51. […] A correction for the effect of DMSO contained in the compound solutions and running buffer (solvent correction) was performed on the basis of measured results from separately prepared solutions mimicking the running buffer, and containing 3.8 to 5.1% of DMSO (8 points). The compound characterization assay program for Biacore S51 was performed to measure the interactions between immobilized ligands (proteins) and analytes (compounds; 62.5 μM to 0.244 μM), and the results were analyzed using a dedicated software program. […]

FLJ12502-derived protein = target: T2, FLJ12502-derived protein (Homo sapiens, UniProt Q7Z3D6); test: Biacore S51 surface plasmon resonance binding to FLJ12502-derived protein
T2 construct: made in house; host or cells: wheat germ cell-free synthesis system (PROTEIOS, Toyobo)
T2 sequence (Q7Z3D6 29-616): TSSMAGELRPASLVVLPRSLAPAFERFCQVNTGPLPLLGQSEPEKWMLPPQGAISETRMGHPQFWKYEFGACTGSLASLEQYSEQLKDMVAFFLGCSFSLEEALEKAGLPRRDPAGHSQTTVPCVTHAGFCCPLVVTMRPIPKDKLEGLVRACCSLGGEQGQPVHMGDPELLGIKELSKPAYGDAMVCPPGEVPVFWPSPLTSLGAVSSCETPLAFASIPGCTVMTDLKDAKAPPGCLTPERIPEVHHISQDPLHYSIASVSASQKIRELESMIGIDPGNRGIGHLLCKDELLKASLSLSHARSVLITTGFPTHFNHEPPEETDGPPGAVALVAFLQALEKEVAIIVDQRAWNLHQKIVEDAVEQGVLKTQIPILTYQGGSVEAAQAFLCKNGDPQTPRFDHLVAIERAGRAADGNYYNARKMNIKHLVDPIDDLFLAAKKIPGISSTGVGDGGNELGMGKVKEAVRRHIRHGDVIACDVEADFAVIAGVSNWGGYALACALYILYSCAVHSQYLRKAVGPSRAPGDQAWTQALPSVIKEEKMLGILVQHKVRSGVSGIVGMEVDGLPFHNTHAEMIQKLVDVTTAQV
Protocol: as §1, §2

FLJ14583-derived protein = target: T3, FLJ14583-derived protein (Homo sapiens, UniProt Q12816); test: Biacore S51 surface plasmon resonance binding to FLJ14583-derived protein
T3 construct: made in house; host or cells: wheat germ cell-free synthesis system (PROTEIOS, Toyobo)
T3 sequence (Q12816 1-706 isoform Q12816-2): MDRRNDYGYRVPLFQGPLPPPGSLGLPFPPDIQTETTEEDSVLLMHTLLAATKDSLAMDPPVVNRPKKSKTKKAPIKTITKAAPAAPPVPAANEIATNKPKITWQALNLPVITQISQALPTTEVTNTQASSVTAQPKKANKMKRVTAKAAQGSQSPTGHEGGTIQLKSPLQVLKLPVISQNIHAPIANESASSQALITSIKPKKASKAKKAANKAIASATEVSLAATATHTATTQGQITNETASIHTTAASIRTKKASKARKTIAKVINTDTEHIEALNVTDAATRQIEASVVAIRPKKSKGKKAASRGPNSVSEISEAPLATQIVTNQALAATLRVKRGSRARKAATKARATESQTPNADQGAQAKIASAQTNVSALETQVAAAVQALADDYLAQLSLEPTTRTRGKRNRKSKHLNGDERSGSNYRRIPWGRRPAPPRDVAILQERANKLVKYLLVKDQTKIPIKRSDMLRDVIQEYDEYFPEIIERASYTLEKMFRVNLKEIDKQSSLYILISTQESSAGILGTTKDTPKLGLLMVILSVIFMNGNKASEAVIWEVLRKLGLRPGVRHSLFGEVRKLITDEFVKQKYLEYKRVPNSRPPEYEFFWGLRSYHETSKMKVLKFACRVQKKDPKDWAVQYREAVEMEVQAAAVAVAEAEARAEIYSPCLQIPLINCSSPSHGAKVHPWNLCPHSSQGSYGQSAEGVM
Protocol: as §1, §2

FLJ11045-derived protein = target: T4, FLJ11045-derived protein (Homo sapiens, UniProt Q9BXT8, E1380K); test: Biacore S51 surface plasmon resonance binding to FLJ11045-derived protein
T4 construct: made in house; host or cells: wheat germ cell-free synthesis system (PROTEIOS, Toyobo)
T4 sequence (Q9BXT8 949-1581 isoform Q9BXT8-4 E1338K): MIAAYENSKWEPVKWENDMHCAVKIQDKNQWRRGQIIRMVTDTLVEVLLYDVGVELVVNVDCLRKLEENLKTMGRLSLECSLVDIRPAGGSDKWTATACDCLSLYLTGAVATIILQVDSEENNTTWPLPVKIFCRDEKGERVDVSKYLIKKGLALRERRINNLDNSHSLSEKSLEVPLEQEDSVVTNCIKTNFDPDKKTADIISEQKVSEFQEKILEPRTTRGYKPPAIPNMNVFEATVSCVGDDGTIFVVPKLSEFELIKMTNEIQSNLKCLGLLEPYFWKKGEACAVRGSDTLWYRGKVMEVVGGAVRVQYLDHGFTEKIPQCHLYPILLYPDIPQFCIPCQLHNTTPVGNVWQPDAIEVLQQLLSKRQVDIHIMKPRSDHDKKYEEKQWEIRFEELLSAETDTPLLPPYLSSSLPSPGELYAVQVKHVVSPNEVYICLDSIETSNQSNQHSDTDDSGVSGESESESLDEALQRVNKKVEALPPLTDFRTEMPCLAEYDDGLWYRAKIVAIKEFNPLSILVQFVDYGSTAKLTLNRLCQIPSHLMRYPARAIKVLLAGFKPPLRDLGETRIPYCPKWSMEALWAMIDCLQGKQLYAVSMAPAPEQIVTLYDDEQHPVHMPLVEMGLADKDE
From the text: A desired gene of a human full-length cDNA clone was BP-reacted with the PCR cloning vector Gateway pDONR201 using the Invitrogen Gateway system per the kit protocol to yield an entry vector. As the destination vector for the Gateway system, a Gateway cassette having a Gateway recombinant sequence was introduced to allow the utilization of the Gateway system on the basis of pEU3-NII (Toyobo), which matches with a cell-free protein synthesis system (PROTEIOS) of Toyobo Co., Ltd., which employs a wheat germ extract, and a double tag destination vector modified using the PCR method to allow the expression of a peptide having a histidine tag and a FLAG tag sequence in the N-terminal region of the expressed protein was prepared.
The prepared double tag destination vector and entry vector were […] using the Invitrogen Gateway system per the protocol and the Escherichia coli competent cell DH5α was transformed therewith; a clone incorporating the expression vector was selected. A plasmid was prepared from the obtained clone using the QIAfilter Midi kit (QUIAGEN) per the kit protocol. The plasmid obtained was subjected to phenol/chloroform treatment per the protocol for PROTEIOS (Toyobo) to inactivate the RNase to yield a purified expression plasmid.
A recombinant protein was synthesized using a cell-free protein synthesis system (PROTEIOS) of Toyobo Co., Ltd., which employs a wheat germ extract. Subsequently, mRNA was prepared from the expression plasmid acquired by the method described in section 1 above per the protocol for PROTEIOS. With 20 μg of the mRNA acquired, a protein was synthesized per the protocol for PROTEIOS using two wells of a 96-well microtiter plate. The protein synthesized was subjected to high-speed centrifugation, the precipitate was removed, and the resulting soluble fraction was purified using ANTI-FLAG M2 Affinity Gel (SIGMA Company) having an anti-FLAG tag antibody immobilized hereto per the protocol, to yield a purified protein.
as §2

[1] = system: mutant SOD-transgenic mouse showing ALS-like symptoms; details: intraperitoneally administered; cited from earlier work
FLJ10335-derived protein = target: T5, FLJ10335-derived protein (Homo sapiens, UniProt Q9NW38, S77P); test: Biacore S51 surface plasmon resonance binding to FLJ10335-derived protein
T5 construct: made in house; host or cells: wheat germ cell-free synthesis system (PROTEIOS, Toyobo)
T5 sequence (Q9NW38 1-375 S77P): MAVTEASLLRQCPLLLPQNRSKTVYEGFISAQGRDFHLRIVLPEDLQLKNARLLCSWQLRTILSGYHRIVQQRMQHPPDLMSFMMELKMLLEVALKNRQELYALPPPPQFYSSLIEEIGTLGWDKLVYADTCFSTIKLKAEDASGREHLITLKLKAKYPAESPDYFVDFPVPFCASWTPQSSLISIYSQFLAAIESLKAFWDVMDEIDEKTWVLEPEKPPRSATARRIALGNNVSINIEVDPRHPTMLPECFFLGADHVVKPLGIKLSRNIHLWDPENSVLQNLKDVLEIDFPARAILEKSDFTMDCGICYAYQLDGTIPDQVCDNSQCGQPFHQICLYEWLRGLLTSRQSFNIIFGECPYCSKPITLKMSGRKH
Protocol: as §1, §2

Compound: CC[C@@]1(O)C[C@H](O[C@H]2C[C@H](N(C)C)[C@H](O[C@H]3C[C@H](O)[C@H](O[C@H]4CCC(=O)[C@H](C)O4)[C@H](C)O3)[C@H](C)O2)c2c(cc3c(c2O)C(=O)c2c(O)cccc2C3=O)[C@H]1C(=O)OC [aclarubicin]
interaction with the protein (binding level dose-proportional, saturated at high doses) (FLJ10889-derived protein): interact specifically

Compound: CO/N=C(\C(=O)N[C@@H]1C(=O)N2C(C(=O)O)=C(CSc3nc(=O)c(=O)[nH]n3C)CS[C@H]12)c1csc(N)n1 [ceftriaxone]
expression of GLT1 in the spinal cord [1]: increased | muscle strength [1]: increase in the muscle strength | neuron number [1]: recovery of neuron number

Continued, values first:

interaction with the protein (binding level dose-proportional, saturated at high doses) (FLJ12502-derived protein): interact specifically
Compound: C[C@H]1[C@H](C)CC[C@]2(C(=O)O)CC[C@]3(C)C(=CC[C@@H]4[C@@]5(C)CC[C@H](O)C(C)(C)[C@@H]5CC[C@]43C)[C@H]12 [ursolic acid]

Kd (FLJ14583-derived protein; Biacore S51, immobilized FLJ14583-derived protein, analyte 62.5 μM to 0.244 μM, read-out: binding dissociation constant Kd): 23 µM | interaction with the protein (binding level dose-proportional, saturated at high doses) (FLJ14583-derived protein; FLJ14583-derived protein, Biacore S51): interact specifically
Compound: Cc1onc(-c2c(Cl)cccc2Cl)c1C(=O)N[C@@H]1C(=O)N2[C@@H]1SC(C)(C)[C@@H]2C(=O)O [dicloxacillin]

Kd (FLJ11045-derived protein; Biacore S51, immobilized FLJ11045-derived protein, analyte 62.5 μM to 0.244 μM, read-out: binding dissociation constant Kd): 11.5 µM | interaction with the protein (binding level dose-proportional, saturated at high doses) (FLJ11045-derived protein; FLJ11045-derived protein, Biacore S51): interact specifically
Compound: CC1=C(C(=O)O)N2C(=O)[C@@H](NC(=O)[C@H](N)c3ccc(O)cc3)[C@H]2SC1 [cefadroxil]

interaction with the protein (binding level dose-proportional, saturated at high doses) (FLJ10335-derived protein): interact specifically
Compound: CC(C)C[C@H](NC(=O)[C@@H](O)[C@H](N)Cc1ccccc1)C(=O)O [ubenimex]
